Read-outs that look alike come from different tables or passages of the source.
Key:
[1] = system: prokaryotic ribosome (E. coli S30 extract); experiment: Prokaryotic in vitro translation inhibition, E. coli S30 extract with pBESTluc plasmid; format: biochemical; details: read-out: Translation Inhibition IC50^Pro
Protocol: (§1) Prokaryotic in vitro translation inhibition by the different aminoglycosides was quantified in coupled transcription/translation assays by using E. coli S30 extract for circular DNA with the pBESTluc plasmid (Promega), according to the manufacturer's protocol. Translation reactions (25 μL) that contained variable concentrations of the tested aminoglycoside were incubated at 37° C. for 60 minutes, cooled on ice for 5 minutes, and diluted with a dilution reagent (tris-phosphate buffer (25 mM, pH 7.8), DTT (2 mM), 1,2-diaminocyclohexanetetraacetate (2 mM), glycerol (10%), Triton X-100 (1%) and BSA (1 mg mL-1)) into 96-well plates. Eukaryotic in vitro translation inhibition was quantified by use of TNT® T7 Quick Coupled Transcription/Translation System with a luciferase T7 control DNA plasmid (Promega), according to the manufacturer protocol. Translation reactions (25 μL) containing variable concentrations of the tested aminoglycoside were incubated at 30° C. for 60 minutes, cooled on ice for 5 minutes, diluted with the dilution reagent and transferred into 96-well plates. In both prokaryotic and eukaryotic systems the luminescence was measured immediately after the addition of the Luciferase Assay Reagent (50 μL; Promega), and the light emission was recorded with a FLx800 Fluorescence Microplate Reader (Biotek). The half-maximal inhibition concentration (IC50) values were obtained from fitting concentration-response curves to the data of at least two independent experiments by using Grafit 5 software.
(§2) In all biological tests, all AGs were in their sulfate salt forms, and the concentrations refer to the free amine form of each AG. The eukaryotic and prokaryotic half-maximal-inhibition values (IC50^Euk and IC50^Pro) were quantified in coupled transcription/translation assays by using active luciferase detection as previously described. Minimal inhibitory concentration (MIC) values were determined by using the double-microdilution method.

[2] = target: eukaryotic cytoplasmic ribosome; experiment: Eukaryotic in vitro translation inhibition, TNT T7 Quick Coupled Transcription/Translation System with luciferase plasmid; format: biochemical; details: for IC50: read-out: Translation Inhibition IC50^Euk; for more specific to the eukaryotic ribosome than structurally related compound: NB156 vs NB74, NB157 vs NB124
Protocol: as §1, §2

B. subtilis ATCC-6633 = experiment: Antibacterial activity, MIC by double-microdilution method; format: cell-based; details: Table 2
Protocol: (§3) Comparative antibacterial activities were determined in two representative strains of Gram-negative (E. coli R477-100) and Gram-positive (B. subtilis ATCC-6633) bacteria, by measuring the MIC values using the double-microdilution method according to the National Committee for Clinical Laboratory Standards (NCCLS) (NCCLS. National Committee for Clinical Laboratory Standards, Performance standards for antimicrobial susceptibility testing. Fifth information supplement: Approved Standard M100-S5; Villanova, Pa.: NCCLS, 1994.).
as §2

E. coli R477-100 = experiment: as above; format: cell-based; details: for MIC: Escherichia coli, R477100, read-out: Antibacterial activity MIC E. coli R477/100
Protocol: as §3, §2

[3] = system: nonsense constructs R3X (USH1), R245X (USH1), Q70X (HS), G542X (CF); experiment: Dual luciferase in vitro readthrough assay, four nonsense constructs; format: biochemical; details: all mutations tested, FIGS. 4A-D; for readthrough activity relative to structurally related compound lacking 7′-hydroxyl: NB156 vs NB74, NB157 vs NB124
Excerpt: (§4) DNA fragments derived from PCDH15, CFTR, and IDUA cDNAs, including the tested nonsense mutation or the corresponding wild type (wt) codon, and four to six upstream and downstream flanking codons were created by annealing the following pairs of complementary oligonucleotides:
(§5) Fragments were inserted in frame into the polylinker of the p2Luc plasmid between either BamHI and SacI (p.R3X and p.R245X) or SalI and SacI (all the rest) restriction sites. For the in vitro readthrough assays, the obtained plasmids, with addition of the tested aminoglycosides were transcribed and translated using the TNT Reticulocyte Lysate Quick Coupled Transcription/Translation System. Luciferase activity was determined after 90 minutes of incubation at 30° C., using the Dual Luciferase Reporter Assay System (Promega™).
Activity was tested using a collection of dual-luciferase reporter plasmids, containing different sequence contests around premature stop codons derived from the PCDH15, CFTR, and IDUA genes that underline USH1, CF, and MPS I-H, respectively. The exemplified nonsense reporters were R3X and R245X for USH1, G542X for CF, and Q70X for MPS I-H.
The results are averages of at least three independent experiments.

[4] = system: stop codon mutations of Table 3; experiment: Dual-luciferase readthrough assay, broad arsenal of stop codon mutations; format: biochemical; details: all tested mutations
Protocol: In these assays, the readthrough of a broad arsenal of stop codon mutations in the presence of NB156 and NB157 was tested. Briefly, NB156 and NB157 were tested at escalating doses for their read-through properties towards the nonsense mutation using the wild-type (WT) sequence of each specific complementary DNA (cDNA) as a control, and plasmids bearing the stop codon mutations in a dual-luciferase assay. DNA fragments derived from different cDNAs were prepared using either the WT or nonsense mutation, in which the sequences from the mutant or wild-type codon were surrounded by four to six upstream and downstream flanking codons. The cDNA sequence was inserted into the polylinker of the p2luc plasmid for each sequence.

[5] = system: R3X nonsense mutation construct representing USH1 (PCDH15); experiment: Dual luciferase in vitro readthrough assay, R3X construct; format: biochemical; details: FIG. 3
Excerpt: as §4, §5
FIG. 3 presents comparative plots showing in vitro stop codon suppression levels induced by Compound 1 (-▪-), NB153 (-▴-), and NB155 (-Δ-) in R3X nonsense mutation construct representing USH1 genetic disease.

human fibroblast cells = details: cited from earlier work
[6] = system: premature termination codon (PTC); experiment: Comparative in-vitro PTC suppression activity assays (Example 3); format: biochemical; details: preliminary
Protocol: as §5

[7] = Table 2, sulfate salts, concentrations refer to free amine form

Row | Compound | IC50 [1, 7] | IC50 [2, 7] | IC50 ([1]; Table 4) | IC50 ([2]; Table 4) | further results
1 | gentamicin [reference compound] | 0.03 µM | 62 µM | – | – | Antibacterial Activity MIC B. Subtilis ATCC6633 (B. subtilis ATCC-6633): <0.75 µM; Antibacterial Activity MIC E. Coli R 477/100 (E. coli R477-100; Table 2): 6 µM
2 | NC[C@H]1O[C@@H](OC2C(O)[C@H](N)CC(N)[C@H]2O[C@H]2OC(CO)[C@@H](O)C(O)C2N)C(O)C1O (stereo partly shown) [NB30, reference compound] | – | – | 0.45 ± 0.03 µM | 31 ± 4 µM | –
3 | NC[C@H]1O[C@@H](O[C@@H]2[C@@H](O)[C@H](N)C[C@H](N)[C@H]2O[C@H]2O[C@H]([C@H](O)CO)[C@@H](O)[C@H](O)[C@H]2N)[C@@H](O)[C@H]1O [NB156, (2R,3S,4R,5R,6S)-5-amino-6-(((1R,2R,3S,4R,6S)-4,6-diamino-2-(((2S,3S,4R,5R)-5-(aminomethyl)-3,4-dihydroxytetrahydrofuran-2-yl)oxy)-3-hydroxycyclohexyl)oxy)-2-((R)-1,2-dihydroxyethyl)tetrahydro-2H-pyran-3,4-diol] | 0.7 ± 0.1 µM | 7.5 ± 0.5 µM | – | – | readthrough activity relative to gentamicin [3]: significantly better; readthrough activity relative to structurally related compound lacking 7′-hydroxyl [3]: substantially better; more specific to the eukaryotic ribosome than structurally related compound [2]: 1.85 fold; stop-codon mutation readthrough activity compared to NB74 [4]: more active than NB74
4 | N[C@H]1[C@@H](O[C@H]2[C@H](O)[C@@H](O)[C@H](N)C[C@@H]2N)O[C@H]([C@@H](O)CO)[C@@H](O)[C@@H]1O [NB155, (2R,3S,4R,5R,6S)-5-amino-6-(((1R,2R,3S,4R,6S)-4,6-diamino-2,3-dihydroxycyclohexyl)oxy)-2-((S)-1,2-dihydroxyethyl)tetrahydro-2H-pyran-3,4-diol] | 91.9 ± 8.4 µM | 516 ± 15 µM | – | – | in vitro readthrough activity relative to Compound 1 [5]: somewhat higher activity
5 | N[C@H]1[C@@H](O[C@H]2[C@H](O)[C@@H](O)[C@H](N)C[C@@H]2N)O[C@H](CO)[C@@H](O)[C@@H]1O [Paro., paromamine, reference compound] | – | – | 14 ± 1.2 µM | 760 ± 79 µM | –
6 | C[C@H](N)[C@H]1O[C@@H](O[C@@H]2C(O)[C@H](N)CC(N)[C@H]2O[C@H]2OC(CO)=CC(O)[C@@H]2N)C(O)[C@H]1O (stereo partly shown) [NB159] | – | – | 134 ± 2.8 µM | 47.9 ± 3.3 µM | MIC (E. coli R477-100): > 192 µg/mL
7 | N[C@H]1[C@@H](O[C@H]2[C@H](O)[C@@H](O)[C@H](N)C[C@@H]2N)O[C@H]([C@H](O)CO)[C@@H](O)[C@@H]1O [NB153, (2R,3S,4R,5R,6S)-5-amino-6-(((1R,2R,3S,4R,6S)-4,6-diamino-2,3-dihydroxycyclohexyl)oxy)-2-((R)-1,2-dihydroxyethyl)tetrahydro-2H-pyran-3,4-diol] | 11 ± 1.2 µM | 120 ± 14.5 µM | – | – | in vitro readthrough activity relative to Compound 1 [5]: dramatically increases
8 | NC[C@H]1O[C@@H](O[C@@H]2C(O)[C@H](N)CC(N)[C@H]2O[C@H]2OC(CO)=CC(O)[C@@H]2N)C(O)[C@H]1O (stereo partly shown) [NB158] | – | – | 36.4 ± 3.5 µM | 70.7 ± 2.4 µM | MIC (E. coli R477-100): > 192 µg/mL
9 | C[C@H](N)[C@H]1O[C@@H](OC2C(O)[C@H](N)CC(N)[C@H]2O[C@H]2OC(CO)[C@@H](O)C(O)C2N)C(O)C1O (stereo partly shown) [NB118, reference compound] | – | – | 1.9 ± 0.2 µM | 15.5 ± 1.3 µM | –
10 | CN[C@@H]1[C@@H](O)[C@@H](O[C@@H]2[C@@H](O)[C@H](O[C@H]3O[C@H]([C@@H](C)O)[C@@H](O)[C@H](O)[C@H]3N)[C@@H](N)C[C@H]2N)OC[C@]1(C)O [Compound G418, geneticin] | – | – | – | – | LD50 (human fibroblast cells): 0.04 mg/mL
11 | C[C@H](N)[C@H]1O[C@@H](O[C@@H]2[C@@H](O)[C@H](N)C[C@H](N)[C@H]2O[C@H]2O[C@H]([C@H](O)CO)[C@@H](O)[C@H](O)[C@H]2N)[C@@H](O)[C@H]1O [NB157, (2R,3S,4R,5R,6S)-5-amino-6-(((1R,2R,3S,4R,6S)-4,6-diamino-2-(((2S,3S,4R,5R)-5-((S)-1-aminoethyl)-3,4-dihydroxytetrahydrofuran-2-yl)oxy)-3-hydroxycyclohexyl)oxy)-2-((R)-1,2-dihydroxyethyl)tetrahydro-2H-pyran-3,4-diol] | – | 1.2 µM | – | – | readthrough activity relative to gentamicin [3]: significantly better; readthrough activity relative to structurally related compound lacking 7′-hydroxyl [3]: better; more specific to the eukaryotic ribosome than structurally related compound [2]: 1.25 fold
12 | N[C@H]1[C@@H](O[C@H]2[C@H](O)[C@@H](O)[C@H](N)C[C@@H]2N)OC(CO)=C[C@@H]1O [NB154, (1S,2R,3R,4S,6R)-4,6-diamino-3-(((2S,3R,4S)-3-amino-4-hydroxy-6-(hydroxymethyl)-3,4-dihydro-2H-pyran-2-yl)oxy)cyclohexane-1,2-diol] | – | – | 82.3 ± 11.9 µM | 376 ± 38.6 µM | readthrough activity relative to NB82 [6]: more or less similar activity; readthrough activity relative to paromamine [6]: ~3.5 fold
13 | CC(O)C1O[C@H](O[C@@H]2C(N)C[C@@H](N)C(O)C2O[C@@H]2O[C@H]([C@H](C)N)C(O)C2O)C(N)C(O)[C@@H]1O (single isomer, unassigned) [NB124, reference compound] | 1.1 ± 0.2 µM | 1.5 ± 0.1 µM | – | – | MIC (E. coli R477-100): 1270 µM

Source: patent US20190016746A1, “AMINOGLYCOSIDE DERIVATIVES AND USES THEREOF IN TREATING GENETIC DISORDERS” (Eloxx Pharmaceuticals Ltd., priority 2016, published 2019)
